Here are results for two compounds from patent US9988341B2, “Bacterial topoisomerase inhibitors and use thereof” (THE FLORIDA INTERNATIONAL UNIVERSITY BOARD OF TRUSTEES, priority 2016, dated 2018).

Experiment [1] concerns M. smegmatis mc2 155/pTA-M+. Nature of the experiment: microbe, parasite or virus in culture. The class given is cell-based. The following applies: Mycolicibacterium smegmatis, MC2155, read-out: MIC, M. smegmatis mc2 155/pTA-M+.
Experiment [2] has as its system M. smegmatis. Nature of the experiment: M. smegmatis loss of viability (viable colony counts). In kind it is cell-based.

Structures are written as SMILES. Converted amounts (≈) assume the structure as drawn.

Turning to `CCCC[C@@H](CN[C@@H](CN)CCCCNC)NCc1cccc2ccccc12` [Compound 2471-36], the MIC in experiment [1] stood at 50 µM (≈ 19.2 µg/mL).

With `CCCC[C@@H](CN[C@H](CN)CCCCNC)NCc1cccc2ccccc12` [Compound 2471-12, (S)—N6-methyl-N2-((S)-2-(naphthalen-1-ylmethylamino)hexyl)hexane-1,2,6-triamine], the MIC in experiment [1] amounted to 50 µM (≈ 19.2 µg/mL). Moreover, the “Time course of loss of viable colony counts, MtbTopI overexpression” value in experiment [2] was “reduction of cell killing”.
